Drawing on patent US9975854B2, “Benzomorphan analogs and use thereof” (Purdue Pharma L.P., priority 2014, dated 2018), this text covers EC50 and Emax for 22 compounds.

This experiment addresses μ-opioid receptor (Homo sapiens (Human), UniProt P35372). The experiment is described as follows: μ-opioid receptor [35S]GTPγS functional assay, HEK-293 or CHO cells. The class given is biochemical. The note with it: HEK-293 or CHO cells; for EC50: read-out: GTPγS μ EC50; for Emax: relative to DAMGO. On the procedure: [^35S]GTPγS functional assays were conducted using freshly thawed μ-receptor membranes prepared in-house from a cell line expressing recombinant opioid receptor in a HEK-293, CHO or U-2 OS cell background, or purchased from a commercial source (Perkin Elmer, Shelton, Conn.; or DiscovRx, Fremont, Calif.). Assay reactions were prepared by sequentially adding the following reagents to binding buffer (100 mM NaCl, 10 mM MgCl2, 20 mM HEPES, pH 7.4) on ice (final concentrations indicated): membrane protein (0.026 mg/mL), saponin ([…]), GDP ([…]) and [^35S]GTPγS (0.20 nM; Perkin Elmer, Shelton, Conn.). The prepared membrane solution (190 μl/well) was transferred to 96-shallow well polypropylene plates containing 10 μl of 20× concentrated stock solutions of the agonist [D-Ala^2, N-methyl-Phe^4 Gly-ol^5]-enkephalin (DAMGO) prepared in dimethyl sulfoxide (DMSO). Plates were incubated for 30 min at about 25° C. with shaking. Reactions were terminated by rapid filtration onto 96-well Unifilter GF/B filter plates (Perkin Elmer, Shelton, Conn.) using a 96-well tissue harvester (Perkin Elmer, Shelton, Conn.) followed by three filtration washes with 200 μl of ice-cold wash buffer (10 mM NaH2PO4, 10 mM Na2HPO4, pH 7.4). Filter plates were subsequently dried at 50° C. for 2-3 hr. BetaScint scintillation cocktail (Perkin Elmer, Shelton, Conn.) was added (50 μl/well) and plates were counted using a Packard Top-Count for 1 min/well. Data were analyzed using the sigmoidal dose-response curve fitting functions in GraphPad PRISM v. 3.0, or an in-house function for non-linear, sigmoidal dose-response curve-fitting.
μ GTP EC50 is the concentration of a compound providing 50% of the maximal response for the compound at a μ-opioid receptor.
μ GTP Emax (%) is the maximal effect elicited by a compound relative to the effect elicited by DAMGO, a standard p agonist. Generally, the μ GTP Emax (%) value measures the efficacy of a compound to treat or prevent pain or other Conditions.
In TABLE 4, activity response of certain Compounds of the Invention to the μ- and κ-opioid receptors was determined as described above for functional assays using HEK-293 or CHO cells.
A general note: GTPγS resists hydrolysis and so accumulates on activated G proteins.

Like-named read-outs stand apart in the source and are kept apart here.

With `CN1CC[C@@]2(C)c3cc(C#N)ccc3C[C@@H]1[C@@H]2NCCc1ccccc1` [Compound 113, (2R,6S,11R)-3,6-dimethyl-11-(phenethylamino)-1,2,3,4,5,6-hexahydro-2,6-methanobenzo[d]azocine-8-carbonitrile], the EC50 stood at 11.7 ± 2.81 µM and the Emax was 10.3 ± 1.1%.

`CN1CC[C@@]2(C)c3cc(O)ccc3C[C@@H]1[C@@H]2NC(=O)Cc1ccc(S(C)(=O)=O)cc1` [Compound 33, N-((2R,6S,11R)-8-hydroxy-3,6-dimethyl-1,2,3,4,5,6-hexahydro-2,6-methanobenzo[d]azocin-11-yl)-2-(4-(methylsulfonyl)phenyl)acetamide]: the concentration for a half-maximal effect (EC50) amounted to 5.28 ± 1.26 µM and the Emax worked out at 13%.

Consider `CN1CC[C@@]2(C)c3cc(O)ccc3C[C@@H]1[C@@H]2N(C)C(=O)Nc1nc2ccc(F)cc2s1` [Compound 81, 3-(6-fluorobenzo[d]thiazol-2-yl)-1-((2R,6S,11R)-8-hydroxy-3,6-dimethyl-1,2,3,4,5,6-hexahydro-2,6-methanobenzo[d]azocin-11-yl)-1-methylurea], for which the Emax was -1%. Moreover, the EC50 (bound given in uM) was above 20 µM.

In the case of `CCCN(C(=O)Nc1ccc(C#N)cc1)[C@H]1[C@H]2Cc3ccc(O)cc3[C@]1(C)CCN2C` [Compound 92, 3-(4-cyanophenyl)-1-((2R,6S,11R)-8-hydroxy-3,6-dimethyl-1,2,3,4,5,6-hexahydro-2,6-methanobenzo[d]azocin-11-yl)-1-propylurea], the concentration for a half-maximal effect (EC50) was determined as 0.0964 ± 0.00352 µM and the Emax was determined as 43.8 ± 1.03%.

As to `CN1CC[C@@]2(C)c3cc(O)ccc3C[C@@H]1[C@@H]2N(C)CC1CCN(C(=O)C(C)(C)C)CC1` [Compound 52, 1-(4-((((2R,6S,11R)-8-hydroxy-3,6-dimethyl-1,2,3,4,5,6-hexahydro-2,6-methanobenzo[d]azocin-11-yl)(methyl)amino)methyl)piperidin-1-yl)-2,2-dimethylpropan-1-one], the half-maximal effective concentration (EC50) came out at 0.00122 ± 0.0002 µM and the Emax came out at 31.3 ± 0.88%.

In the case of `CN1CC[C@@]2(C)c3cc(O)ccc3C[C@@H]1[C@@H]2NC(=O)CC(=O)Nc1ccc(F)cc1F` [Compound 30, N^1-(2,4-difluorophenyl)-N^3—((2R,6S,11R)-8-hydroxy-3,6-dimethyl-1,2,3,4,5,6-hexahydro-2,6-methanobenzo[d]azocin-11-yl)malonamide], the Emax was 2.67 ± 3.67%. In addition, the concentration for a half-maximal effect (EC50) (bound given in uM) was above 20 µM.

Take `CN1CC[C@@]2(C)c3cc(O)ccc3C[C@@H]1[C@@H]2N(C)C(=O)Nc1nc2ccccc2o1` [Compound 121, 3-(Benzo[d]oxazol-2-yl)-1-((2R,6S,11R)-8-hydroxy-3,6-dimethyl-1,2,3,4,5,6-hexahydro-2,6-methanobenzo[d]azocin-11-yl)-1-methylurea]: the EC50 is 0.0824 ± 0.0104 µM and the Emax was determined as 60.1 ± 4.74%.

As for `CN1CC[C@@]2(C)c3cc(O)ccc3C[C@@H]1[C@H]2N(CCc1ccc(F)cc1)CC(=O)O` [Compound 72, N-(4-fluorophenethyl)-N-((2R,6S,11S)-8-hydroxy-3,6-dimethyl-1,2,3,4,5,6-hexahydro-2,6-methanobenzo[d]azocin-11-yl)glycine], the concentration giving a half-maximal response (EC50) is 0.338 ± 0.0609 µM and the Emax stood at 101 ± 2.91%.

On to `CN1CC[C@@]2(C)c3cc(O)ccc3C[C@@H]1[C@@H]2NCCOc1ccccc1` [Compound 15, (2R,6S,11R)-3,6-dimethyl-11-((2-phenoxyethyl)amino)-1,2,3,4,5,6-hexahydro-2,6-methanobenzo[d]azocin-8-ol], for which the concentration giving a half-maximal response (EC50) came to 0.124 ± 0.0204 µM and the Emax came out at 97.7 ± 1.76%.

Regarding `CN1CC[C@@]2(C)c3cc(C(N)=O)ccc3C[C@@H]1[C@@H]2N(C)CCc1ccccc1` [Compound 123, (2R,6S,11R)-3,6-dimethyl-11-(methyl(phenethyl)amino)-1,2,3,4,5,6-hexahydro-2,6-methanobenzo[d]azocine-8-carboxamide], the EC50 came out at 0.0233 ± 0.00447 µM and the Emax is 97.4 ± 0.2%.

Turning to `CCn1c(NC(=O)N(C)[C@H]2[C@H]3Cc4ccc(OC)cc4[C@]2(C)CCN3C)nc2ccccc21` [Compound 110, 3-(1-Ethyl-1H-benzo[d]imidazol-2-yl)-1-((2R,6S,11R)-8-methoxy-3,6-dimethyl-1,2,3,4,5,6-hexahydro-2,6-methanobenzo[d]azocin-11-yl)-1-methylurea], the concentration for a half-maximal effect (EC50) amounted to 0.851 ± 0.161 µM and the Emax was determined as 89.2 ± 6.05%.

In the case of `CN1CC[C@]2(C)c3cc(O)ccc3CC1[C@@H]2C(=O)N1CCCCC1` [Compound 106, ((6S,11R)-8-hydroxy-3,6-dimethyl-1,2,3,4,5,6-hexahydro-2,6-methanobenzo[d]azocin-11-yl)(piperidin-1-yl)methanone], the EC50 is 4.09 ± 0.334 µM and the Emax came out at 49 ± 1.73%.

Regarding `CN1CC[C@@]2(C)c3cc(O)ccc3C[C@@H]1[C@@H]2NCc1ccccc1` [Compound 108, (2R,6S,11R)-11-(benzylamino)-3,6-dimethyl-1,2,3,4,5,6-hexahydro-2,6-methanobenzo[d]azocin-8-ol], the EC50 was 11.7 ± 3.29 µM and the Emax worked out at 17.1 ± 0.67%.

Regarding `CN1CC[C@@]2(C)c3cc(O)ccc3C[C@@H]1[C@@H]2N(C)S(=O)(=O)Cc1ccccc1` [Compound 100, N-((2R,6S,11R)-8-hydroxy-3,6-dimethyl-1,2,3,4,5,6-hexahydro-2,6-methanobenzo[d]azocin-11-yl)-N-methyl-1-phenylmethane-sulfonamide], the EC50 was 8.95 ± 2.04 µM and the Emax was 25 ± 1.53%.

For `CC(C)CS(=O)(=O)N1CCC(CN(C)C2[C@H]3Cc4ccc(O)cc4C2(C)CCN3C)CC1` (stereo in doubt) [Compound 59, (2R,6S,11S)-11-(((1-(isobutylsulfonyl)piperidin-4-yl)methyl)(methyl)amino)-3,6-dimethyl-1,2,3,4,5,6-hexahydro-2,6-methanobenzo[d]azocin-8-ol], the half-maximal effective concentration (EC50) is 0.0528 ± 0.005 µM and the Emax came to 27 ± 1.53%.

For `COc1ccc2c(c1)[C@]1(C)CCN(C)[C@H](C2)[C@@H]1N(C)C(=O)CN1CCNC(=O)C1` [Compound 44, N-((2R,6S,11R)-8-methoxy-3,6-dimethyl-1,2,3,4,5,6-hexahydro-2,6-methanobenzo[d]azocin-11-yl)-N-methyl-2-(3-oxopiperazin-1-yl)acetamide], the Emax is 43 ± 2.52%. For the same compound, the EC50 (bound given in uM) was above 20 µM.

On to `CCN(C(=O)Nc1ccc(C#N)cc1)[C@@H]1[C@H]2Cc3ccc(O)cc3[C@]1(C)CCN2C` [Compound 93, 3-(4-cyanophenyl)-1-ethyl-1-((2R,6S,11 S)-8-hydroxy-3,6-dimethyl-1,2,3,4,5,6-hexahydro-2,6-methanobenzo[d]azocin-11-yl)urea], for which the EC50 came to 2.29 ± 0.404 µM and the Emax came out at 32 ± 2.48%.

With `CN1CC[C@@]2(C)c3cc(O)ccc3C[C@@H]1[C@H]2N(C)C(=O)Cc1ccc(S(C)(=O)=O)cc1` [Compound 35, N-((2R,6S,11S)-8-hydroxy-3,6-dimethyl-1,2,3,4,5,6-hexahydro-2,6-methanobenzo[d]azocin-11-yl)-N-methyl-2-(4-(methylsulfonyl)phenyl)acetamide], the Emax came to 2 ± 0.41%. For the same compound, the 50% effective concentration (EC50) (bound given in uM) is above 20 µM.

As to `CN1CC[C@@]2(C)c3cc(O)ccc3C[C@@H]1[C@@H]2NCCC1CCCCC1` [Compound 16, (2R,6S,11R)-11-((2-cyclohexylethyl)amino)-3,6-dimethyl-1,2,3,4,5,6-hexahydro-2,6-methanobenzo[d]azocin-8-ol], the half-maximal effective concentration (EC50) was 1.27 ± 0.0901 µM and the Emax was 77.3 ± 3.84%.

`COc1ccc2c(c1)[C@]1(C)CCN(C)[C@H](C2)[C@@H]1N(C)C(=O)Nc1nc2ccccc2[nH]1` [Compound 111, 3-(1H-benzo[d]imidazol-2-yl)-1-((2R,6S,11R)-8-methoxy-3,6-dimethyl-1,2,3,4,5,6-hexahydro-2,6-methanobenzo[d]azocin-11-yl)-1-methylurea]: the EC50 was 0.79 ± 0.0985 µM and the Emax is 67.4 ± 3.48%.

Consider `CCS(=O)(=O)N1CCC(CN(C)[C@H]2[C@H]3Cc4ccc(O)cc4[C@]2(C)CCN3C)CC1` [Compound 56, (2R,6S,11R)-11-(((1-(ethylsulfonyl)piperidin-4-yl)methyl)(methyl)amino)-3,6-dimethyl-1,2,3,4,5,6-hexahydro-2,6-methanobenzo[d]azocin-8-ol], for which the EC50 was 0.0967 ± 0.00987 µM and the Emax is 62 ± 1.53%.

Consider `CN1CC[C@@]2(C)c3cc(O)ccc3C[C@@H]1[C@H]2N(C)C(=O)Nc1nc2cc(F)ccc2s1` [Compound 82, 3-(5-fluorobenzo[d]thiazol-2-yl)-1-((2R,6S,11S)-8-hydroxy-3,6-dimethyl-1,2,3,4,5,6-hexahydro-2,6-methanobenzo[d]azocin-11-yl)-1-methylurea], for which the Emax was found to be 1%. Besides, the half-maximal effective concentration (EC50) (bound given in uM) was above 20 µM.

As a reminder, the EC50 is the midpoint of the concentration-response curve. Usually Emax stands for the size of the effect at its maximum, as opposed to the concentration needed.
